Paper PMC9394284, “Discovery of Novel Dual Adenosine A2A and A1 Receptor Antagonists with 1H-Pyrazolo[3,4-d]pyrimidin-6-amine Core Scaffold as Anti-Parkinson’s Disease Agents” (Pharmaceuticals, 2022)
Read-outs that look alike come from different tables or passages of the source.

What was measured:
[1] = pharmacokinetics and bioavailability in mouse plasma; assay type: in vivo, Crl:CD-1 mice
Method: Male Crl:CD-1 mice of 9~10 weeks of age were purchased from Charles River Laboratories, USA and maintained at standard food and water ad libitum in temperature-controlled room with 12 h on-off light cycle before the experiment. All procedures described were reviewed and approved by the Institutional Animal Care and Use Committee (IACUC) at Frontage Laboratories Inc. For PO dosing, mice were given 11o dissolved in DMSO: PEG400 (1:3, v:v) via gavage. For IV dosing, 11o solubilized in DMSO: PEG400: saline (1:3:6, v:v) were injected into tail veins at dose volume of 1 mL/kg. For IN dosing, 11o solubilized in DMSO and 25 μL of the appropriate dosing solution was placed near the nares to allow animal to inhale the dose. Three mice were sampled from each group for each blood and brain collection time point. Time points are 0.5, 1, 2, 4, 8, 24 h for PO and IN dosing and 0.083, 1, 2, 4, 8 and 24 h for IV dosing. Mice were euthanized by terminal retro-orbital blood collection under isoflurane anesthesia, followed by opening of the thoracic cavity per facility SOPs. A target volume of 1 mL was collected into tubes containing K3EDTA anti-coagulant, inverted several times and held on wet ice until centrifuged under refrigeration (set at 5 °C for 10 min at 2000× g). Resulting plasma were stored in a freezer set to maintain −70 °C until analyzed for 11o concentration. Brain was removed from each animal and weighed following termination, snap frozen and stored until later use. Plasma and brain PK analysis was conducted using WinNolin Version 6.2.1 (Pharsight, Mountain View, CA, USA), operating as a validated software system. Noncompartmental analysis was conducted using the extravascular administration model for oral dosing and the IV bolus model for IV dosing. The peak plasma and brain concentration, time to achieve peak plasma concentration, half-life, and area under the plasma concentration-time curve (Cmax, Tmax, T1/2 and AUC) were calculated from mean plasma concentrations for each sampling time/dose group for 11o. Nominal blood collection times were used for calculation of PK parameters. Dose proportionality was assessed, and bioavailability was calculated for PO dosing.

[2] = metabolic stability in cryopreserved monkey hepatocytes
Method: Metabolic stability of 11o was determined in cryopreserved hepatocytes from mice, rats, dogs, monkeys and human according to the SOPs of Frontage Laboratories Inc. Briefly, cryopreserved hepatocytes for pre-clinical animals and for human (BioIVT, Westbury, NY, USA) were thawed in a 37 °C water bath with gentle shaking until ice had almost melted. The suspensions were immediately transferred to a centrifuge tube (50 mL) containing pre-warmed thawing media at 37 °C with gentle handshaking to prevent the cells from settling. Cell suspensions were centrifuged at 50× g and 4 °C for 5 min. The supernatant was discarded and the pellets were resuspended in prewarmed incubation media (5 mL) at 37 °C. The percentage of viable cells in the suspension was determined by Trypan blue staining method to ensure viability of ≥70 %. […] The samples were centrifuged and aliquots of the supernatant were analyzed for parent compounds by LC/MS/MS using suitable multiple reaction monitoring (MRM) transitions. […] The disappearance of 11o and midazolam was monitored by LC/MS/MS (MRM) analysis of the hepatocyte extracts at each time point. The peak area ratio of the analyte to internal standard was obtained for each sample and the rate of disappearance of 11o was assessed by comparing the peak area ratios at various time points to the peak area ratio obtained at t = 0. The t1/2 is obtained (using the linear portion of semi-log plot of the area ratio vs. time) and the CLint values determined using well-stirred model.

[3] = male, Crl:CD-1, inhaled or intranasal, mouse plasma, 10 mg/kg IN
[4] = male, Crl:CD-1, mouse plasma, 1 mg/kg IV
[5] = male, Crl:CD-1, mouse plasma, 1 mg/kg PO
[6] = male, Crl:CD-1, mouse plasma, 3 mg/kg PO
[7] = male, Crl:CD-1, mouse plasma, 10 mg/kg PO

Cc1cc(Cn2ncc3c(-c4cccc(C#N)c4F)nc(N)nc32)ccc1N [11o, 3-(6-Amino-1-(4-amino-3-methylbenzyl)-1H-pyrazolo[3,4-d]pyrimidin-4-yl)-2-fluorobenzonitrile]
Tmax ([1]; male, Crl:CD-1, inhaled or intranasal, mouse plasma, 1 mg/kg IN): 0.5 h | Tmax ([1]; male, Crl:CD-1, inhaled or intranasal, mouse plasma, 3 mg/kg IN): 0.5 h | Tmax [1, 3]: 0.5 h | half-life [1, 3]: 7.4 h | AUC(0-t) ([1]; male, Crl:CD-1, mouse, plasma, inhaled or intranasal, 1 mg/kg, mouse plasma, 1 mg/kg IN): 74.9 ng·h/mL | Cmax ([1]; male, Crl:CD-1, mouse, plasma, inhaled or intranasal, 1 mg/kg, mouse plasma, 1 mg/kg IN, read-out: Cmax): 23.3 ng/mL | AUC(0-t) ([1]; male, Crl:CD-1, mouse, plasma, inhaled or intranasal, 3 mg/kg, mouse plasma, 3 mg/kg IN): 183 ng·h/mL | Cmax ([1]; male, Crl:CD-1, mouse, plasma, inhaled or intranasal, 3 mg/kg, mouse plasma, 3 mg/kg IN, read-out: Cmax): 53.9 ng/mL | AUC(0-t) ([1]; male, Crl:CD-1, mouse, plasma, inhaled or intranasal, 10 mg/kg, mouse plasma, 10 mg/kg IN): 444 ng·h/mL | Cmax ([1]; male, Crl:CD-1, mouse, plasma, inhaled or intranasal, 10 mg/kg, mouse plasma, 10 mg/kg IN, read-out: Cmax): 88.5 ng/mL | AUC(0-t) ([1]; male, Crl:CD-1, mouse, plasma, iv, 1 mg/kg, mouse plasma, 1 mg/kg IV): 332 ng·h/mL | Cmax ([1]; male, Crl:CD-1, mouse, plasma, iv, 1 mg/kg, mouse plasma, 1 mg/kg IV, read-out: Cmax): 459 ng/mL | AUC(0-t) ([1]; male, Crl:CD-1, mouse, plasma, po, 1 mg/kg, mouse plasma, 1 mg/kg PO): 176 ng·h/mL | Cmax ([1]; male, Crl:CD-1, mouse, plasma, po, 1 mg/kg, mouse plasma, 1 mg/kg PO, read-out: Cmax): 36.8 ng/mL | AUC(0-t) ([1]; male, Crl:CD-1, mouse, plasma, po, 3 mg/kg, mouse plasma, 3 mg/kg PO): 577 ng·h/mL | Cmax ([1]; male, Crl:CD-1, mouse, plasma, po, 3 mg/kg, mouse plasma, 3 mg/kg PO, read-out: Cmax): 81.4 ng/mL | AUC(0-t) ([1]; male, Crl:CD-1, mouse, plasma, po, 10 mg/kg, mouse plasma, 10 mg/kg PO): 2250 ng·h/mL | Cmax ([1]; male, Crl:CD-1, mouse, plasma, po, 10 mg/kg, mouse plasma, 10 mg/kg PO, read-out: Cmax): 367 ng/mL | bioavailability ([1]; male, Crl:CD-1, plasma, other: intranasal (IN), placed near the nares, mouse, IN, 1, 3 and 10 mg/kg, depending on the dose, read-out: Bioavailability after IN administration): 13.4 to 22.6% | Tmax [1, 4]: 0.083 h | half-life [1, 4]: 3.95 h | Tmax [1, 5]: 2 h | half-life [1, 5]: 4.38 h | Tmax [1, 6]: 2 h | half-life [1, 6]: 3.66 h | Tmax [1, 7]: 2 h | half-life [1, 7]: 5.69 h | BA ([1]; mouse plasma, 1 mg/kg IN, relative to AUClast of 1 mg/kg IV): 22.6% | BA ([1]; mouse plasma, 1 mg/kg IV (reference for the calculation)): 100% | BA ([1]; mouse plasma, 1 mg/kg PO, relative to AUClast of 1 mg/kg IV, 1 mg/kg): 53% | BA ([1]; mouse plasma, 3 mg/kg IN, relative to AUClast of 1 mg/kg IV): 18.4% | Cmax ([1]; mouse plasma, 3 mg/kg PO, 3 mg/kg): 81.3 ng/mL | BA ([1]; mouse plasma, 3 mg/kg PO, relative to AUClast of 1 mg/kg IV): 57.9% | BA ([1]; mouse plasma, 10 mg/kg IN, relative to AUClast of 1 mg/kg IV): 13.4% | AUClast ([1]; mouse plasma, 10 mg/kg PO, 10 mg/kg): 2249 ng·h/mL | BA ([1]; mouse plasma, 10 mg/kg PO, relative to AUClast of 1 mg/kg IV): 67.7% | CLint scaled at 1 μM ([2]; cynomolgus monkey, cryopreserved hepatocytes in suspension): 20.1 mL/min/kg | Intrinsic Clearance ([2]; monkey hepatocytes, 1 μM 11o): 0.00558 mL/min/10^6 Cells | half-life at 1 μM ([2]; monkey, cryopreserved hepatocytes in suspension): 2.07 h
